# Reference: patent US9862748B2, “Peptide compounds and methods of production and use thereof” (priority 2012, dated 2018)
# Square brackets hold non-standard residues; d marks the D form. Ends that are not written are not given here. Peptide text beside a SMILES is read from it. AEEA = NCCOCCOCC(=O)O
# Columns and labels:
# swine skin wounds [1] = assay: Swine full thickness excisional dermal wound model, wound area; type: in vivo; details: for Mean Wound Healing (%) Day 0 / Mean Wound Healing (%) Day 3 / Mean Wound Healing (%) Day 5 / Mean Wound Healing (%) Day 7 / Mean Wound Healing (%) Day 10 / Mean Wound Healing (%) Day 14: 3 mg/ml, 0.20 ml per wound, reapplied daily; for dermal wound healing: topical 3 mg/ml over 14 days, vs saline
# Description: In this Example, peptide compounds of the presently disclosed and claimed inventive concept(s) were evaluated as to their activity on the dermal wound healing process in a clinically relevant swine full thickness excisional wound model. Three different peptide formulations (Group B, Peptide 95-122 (SEQ ID NO: 26); Group C, Peptide 120-146WH (SEQ ID NO: 31); and Group D, Peptide 120-146QH-5RMP (SEQ ID NO: 33)) were each evaluated at the same concentration (3 mg/ml). Sterile saline served as the control (Group A).
# (§1) Full thickness excisional wounds were induced on the dorsum of swine (N=3) using a 1.0 cm biopsy punch. Treatments were administered (0.20 ml) to each wound (N=6 wounds per group), and the wounds were dressed with standard occlusive dressing ([…]™, 3M Corporation, St. Paul, Minn.). Treatments were reapplied daily and dressings changed. Clinical wound healing observations and wound area (2 mm) measurements were performed on days 0, 3, 5, 7, 10, and 14 post-wounding. Wound area (2 mm) data were expressed as percentage (%) of wound healing. Animals were terminated on day 14 with wounds harvested and processed for histological evaluation. […] All peptide formulation treatment groups healed faster with greater rate of closure and re-epithelialization over time, as compared to the saline control (Group A).
# swine skin wounds [2] = assay: Swine dermal wound model, histological evaluation; type: in vivo; details: day 14 post-wounding; for Histopathology Results, Mean Angiogenesis / Histopathology Results, Mean Epithelization / Histopathology Results, Mean Granulation / Histopathology Results, Mean Inflammation: 3 mg/ml
# Description: The characteristics that were measured are required to indicate features of a well-healed wound. Inflammation should be low and re-epithelialization high.
# as §1
# The histology correlated with the clinical observations. […] There were minimal differences in the amount or character of granulation tissue, inflammation, and angiogenesis. All the wounds were well filled and vascularized.
# [3] = system: Pseudomonas clinical isolate B64; assay: BIOSCREEN C growth assay / MIC, antibiotic in combination with peptide; type: cell-based, P. aeruginosa; details: for MIC, antibiotic alone: clinical isolate of P. aeruginosa, 1×10^5 CFU/well, 24 hours
# Description: The peptide and antibiotics were set up in the wells of the microtiter plate at starting ratios of MIC equivalents of antibiotic:peptide at 3:1, 1:1, and 1:3. They were serially diluted to concentrations well below suboptimal/sublethal levels of the antibiotic and peptide. The organism was added (1×10^5 CFU/well), the BIOSCREEN C™ assay (Growth Systems USA, Piscataway, N.J.) was performed, and data was collected over 24 hours.
# [4] = system: Pseudomonas aeruginosa ATCC® 27853™; type: cell-based; details: gentamicin 4 μg/ml; for effectiveness against Pseudomonas aeruginosa compared with gentamicin, pH 7.2: peptide at 25 VIM (so in the source); for activity against P. aeruginosa: 120-146WR at 25 μM
# Description: (§2) In vitro bactericidal activity: The three peptide compounds BCC01-5RMP (SEQ ID NO: 21), BCC02-5RMP (SEQ ID NO: 22), and BCC03-5RMP (SEQ ID NO: 23) were assayed for in vitro bactericidal activity against Pseudomonas aeruginosa, Escherichia coli, Salmonella typhimurium, and Acinetobacter baumannii. The starting inoculum for all experiments was 1×10^6 colony forming units (CFU)/ml. The CFU remaining at the end of 60 to 180 minute incubation was determined, and the data plotted as a log reduction in CFU/ml.
# (§3) For FIGS. 10-13, in vitro bactericidal assays were performed using a starting inoculum of 1×10^6 CFU/ml of the bacterial suspension. The CFU remaining at the end of the 60-180 minute incubation was determined, and the data was plotted as log reduction in CFU/ml.
# (§4) In particular, each of the test peptides (CAP37 peptides 120-146WR, 120-146WH, and 95-122 (SEQ ID NOs: 30, 31, and 26, respectively)) was used at 25, 12.5, 6.25, and 3.12 μM. Gentamicin was used at 4 μg/ml. 1×10^6/ml Acinetobacter baumannii ATCC® BAA-747™ or Pseudomonas aeruginosa ATCC® 27853™ (American Type Culture Collection, Manassas, Va.) were incubated with the peptides, negative buffer control (tryptone saline), and positive control gentamicin at pH 5.5 or 7.2. A 60 minute incubation was used for Acinetobacter baumannii ATCC® BAA-747™, while a 180 minute incubation was used for Pseudomonas aeruginosa ATCC® 27853™. 50 μl aliquots were plated out on agar plates and incubated overnight. Colony forming units were counted after overnight incubation and CFU/ml calculated.
# For FIG. 14, 1×10^6/ml Pseudomonas aeruginosa ATCC® 27853™ were incubated with each of the test peptides (CAP37 peptides 120-146WR, 120-146WH, 120-146QR, 120-146QH, 120-146QR-5RMP, and 120-146QH-5RMP (SEQ ID NOs: 30, 31, 28, 29, 32, and 33, respectively)) at 150, 75, and 37.5 μg/ml, or negative buffer control (tryptone saline), for 180 minutes at pH 5.5. 50 μl aliquots were plated out on agar plates and incubated overnight. Colony forming units were counted after overnight incubation and CFU/ml calculated.
# [5] = system: mouse cornea (corneal epithelial abrasion); assay: In vivo model of corneal wound healing; details: treated at 0 and 16 hours; 95-122 10^−5 M; 120-146WH 10^−8 M or 10^−6 M; HB-EGF 250 ng/ml
# Description: The in vivo model of wound healing was carried out using a disposable biopsy punch (2 mm, Miltex, York, Pa.) to demarcate the mouse cornea and a 0.5 mm burr using the AlgerBrush II (The Alger Company, Inc., Lago Vista, Tex.) to remove the corneal epithelium.
# Mice were anesthetized using ketamine (100 mg/kg; Bionichepharma, LLC., St. Lake Forrest, Ill.) and xylazine ([…]; Rompun; Bayer Corp., Shawnee Mission, Kans.), and the right cornea was wounded as follows. A disposable biopsy punch (2 mm, Miltex, York, Pa.) was used to demarcate the mouse cornea. The corneal epithelium was carefully removed within the 2 mm demarcated area with a 0.5 mm burr using the AlgerBrush II (The Alger Company, Inc., Lago Vista, Tex.). The corneal abrasions were treated at 0 and 16 hours with HB-EGF (250 ng/ml), rCAP37 (250 ng/ml), or vehicle control (0.9% sodium chloride, pH 5.5, Baxter, Deerfield, Ill.). Corneal abrasions were visualized using sterile fluorescein sodium ophthalmic strips USP (FLUORETS®, Chauvin Laboratory, Aubenas, France) dampened with sterile PBS. Images were taken at 0, 16, 24, and 48 hours immediately following fluorescein staining using a surgical microscope equipped with a camera (Carl Zeiss OPMI VISU 140, Carl Zeiss Surgical, Inc., Oberkochen, Germany). The areas of the open wound were quantitated using ImageJ software (US National Institutes of Health), and the results were reported as the percentage of wound closure.
# Whole mouse eyes were collected for histology at 0, 6, 16, 24, and 48 hours post wounding and were immediately placed in Prefer fixative (Anatech LTD., Battle Creek, Mich.) for 20 minutes before being transferred to 70% ethanol. Tissues were paraffin-embedded and cut at a thickness of 5 μm, mounted on SUPERFROSTPLUS® slides (Statlab Medical Products, Lewisville, Tex.), and subsequently deparaffinized, rehydrated, and washed in deionized water. Sections were stained with hematoxylin (Leica Microsystems, Buffalo Grove, Ill.) and rinsed twice in deionized water before being washed in Blue Buffer (Leica Microsystems). The sections were finally washed in deionized water and 95% ethanol prior to being counterstained with eosin (Leica Microsystems). Sections were dehydrated in ethanol and cleared in xylene.
# [6] = system: Acinetobacter baumannii ATCC® BAA-747™; type: cell-based
# Description: as §2, §3, §4
Compound,Mean Wound Healing (%) Day 0 (swine skin wounds [1]) [%],Mean Wound Healing (%) Day 3 (swine skin wounds [1]) [%],Mean Wound Healing (%) Day 5 (swine skin wounds [1]) [%],Mean Wound Healing (%) Day 7 (swine skin wounds [1]) [%],Mean Wound Healing (%) Day 10 (swine skin wounds [1]) [%],Mean Wound Healing (%) Day 14 (swine skin wounds [1]) [%],dermal wound healing (swine skin wounds [1]),epidermal resurfacing and maturation of the epidermis versus saline control (swine skin wounds [2]),"Histopathology Results, Mean Angiogenesis (swine skin wounds [2])","Histopathology Results, Mean Epithelization (swine skin wounds [2])","Histopathology Results, Mean Granulation (swine skin wounds [2])","Histopathology Results, Mean Inflammation (swine skin wounds [2])","MIC, antibiotic alone [3] [µg/mL]","effectiveness against Pseudomonas aeruginosa compared with gentamicin, pH 7.2 [4]",activity against A. baumannii at 25 μM [6],activity against P. aeruginosa [4],further results
CC(C)C[C@H](NC(=O)[C@H](CCCNC(=N)N)NC(=O)CNC(=O)CNC(=O)[C@H](CO)NC(=O)[C@H](Cc1c[nH]cn1)NC(=O)[C@H](CCC(N)=O)NC(=O)[C@H](CO)NC(=O)CNC(=O)[C@H](Cc1c[nH]c2ccccc12)NC(=O)CNC(=O)[C@H](C)NC(=O)[C@@H](NC(=O)[C@H](CCC(N)=O)NC(=O)[C@H](CS)NC(=O)[C@H](CCCNC(=N)N)NC(=O)[C@@H](NC(=O)CNC(=O)[C@H](CCCNC(=N)N)NC(=O)[C@H](CCCNC(=N)N)NC(=O)[C@H](CCCNC(=N)N)NC(=O)[C@H](CCCNC(=N)N)NC(=O)COCCOCCNC(=O)COCCOCCN)[C@@H](C)O)C(C)C)C(=O)N[C@@H](CO)C(=O)N[C@@H](CCCNC(=N)N)C(=O)N[C@@H](Cc1ccccc1)C(=O)N1CCC[C@H]1C(=O)N[C@@H](CCCNC(=N)N)C(=O)N[C@@H](Cc1ccccc1)C(=O)N[C@H](C(=O)N[C@@H](CC(N)=O)C(=O)N[C@H](C(=O)N[C@@H](CCCNC(=N)N)C(=O)O)C(C)C)C(C)C [120-146QH-5RMP] (H-[AEEA][AEEA]RRRRGTRCQVAGWGSQHSGGRLSRFPRFVNVR-OH; N-terminus and C-terminus assumed),0.0,22.5,34.1,64.1,93.7,98.0,accelerate dermal wound healing,greater extent of epidermal resurfacing and maturation of the epidermis,1.3,4.0,4.0,0.5,,,,,
"CO/N=C(\C(=O)N[C@@H]1C(=O)N2C(C(=O)O)=C(COC(C)=O)CS[C@H]12)c1csc(N)n1 [Cefotaxime, reference compound]",,,,,,,,,,,,,15,,,,bactericidal impact of antibiotic alone at sublethal concentration ([3]; 2.8 μg/ml of Cefotaxime): very little bactericidal impact
"C[C@H]1COc2c(N3CCN(C)CC3)c(F)cc3c(=O)c(C(=O)O)cn1c23 [Levofloxacin, reference compound]",,,,,,,,,,,,,15,,,,
GTRCQVAGWGSWHSGGRLSRFPRFVNV [Peptide 120-146WH],0.0,22.1,35.9,59.7,93.5,97.5,accelerate dermal wound healing,greater extent of epidermal resurfacing and maturation of the epidermis,1.7,3.7,4.0,0.5,,as effective as the standard antibiotic gentamicin,highly active,,corneal wound healing versus vehicle [5]: significantly greater
GTRCQVAGWGSWRSGGRLSRFPRFVNV [Peptide 120-146WR],,,,,,,,,,,,,,as effective as the standard antibiotic gentamicin,highly active,highly active,activity against A. baumannii at 12.5 μM ([6]; 12.5 μM): highly active
gentamicin [reference compound],,,,,,,,,,,,,,,,highly active,"log reduction of CFU/ml, Pseudomonas aeruginosa, pH 5.5 ([4]; 180 minutes, FIG. 13): 2 log; activity against Acinetobacter baumannii at pH 5.5 ([6]; gentamicin 4 μg/ml, 60 minutes): unable to kill the bacteria; activity against Acinetobacter baumannii at pH 7.2 ([6]; gentamicin 4 μg/ml, 60 minutes): active against the bacteria"
